Laboratory results as given in publication PMC4026384, “Antibacterial Activity of THAM Trisphenylguanide against Methicillin-Resistant Staphylococcus aureus” (PLoS ONE, 2014).

Tested on: Balb/c mice
Assay: In vivo toxicity study (serum chemistry and enzyme levels)
Parameters: species or system mouse
Details: i.p. 0.1 ml of 10, 50, 100 µM, blood two hours post injection, versus mock-treated control
Procedure: THAM-3ΦG was chosen for the in vivo challenge experiments, because it had the best combination of antibacterial activity and low toxicity (Tables 1–3). In vivo toxicity studies were carried out prior to the start of experiments in mice challenged with MRSA. Groups of three Balb/c mice each were injected i.p. with 0.1 ml of 0, 10, 50, and 100 µM THAM-3ФG in PBS. The highest in vivo dose represented 0.36 mg/kg. Blood was drawn from the mice at two hours post injection and submitted for a standard panel of serum chemistry and enzyme levels. The chemistry and enzyme levels were not elevated for any of the concentrations tested compared to the mock-treated control group (data not shown).

In the case of N=C(NCCCCCCNc1nc(NCCCCCCNC(=N)Nc2ccccc2)nc(NCCCCCCNC(=N)Nc2ccccc2)n1)Nc1ccccc1 [THAM-3ΦG, Trishexylaminomelamine trisphenylguanide], the “serum chemistry and enzyme levels” value is reported as “not elevated”.
